Experimental data from patent US7888118B2, “2-{2-[5-(3-chlorophenyl)]furanyl}-4,5-bis(4-methoxyphenyl)imidazole and methods for inducing differentiation of myoblasts or muscle fibers into neuron cells” (Industry-Academic Cooperation Foundation, Yonsei University, priority 2005, dated 2011).

Columns and labels:
[1] = tested on: Murine myoblasts (C2C12); experiment: Neurite outgrowth / neuron differentiation of myoblasts observed by light microscope; format: cell-based
Method: Murine myoblasts (C2C12) are usually cultured in RPMI 1640 or DMEM supplemented with 10% FBS, 50 units/mL penicillin and 50 μg/mL of streptomycin at 37° C. with 5% CO2 in air atmosphere.
For the small molecule screen, the cultured C2C12 cells are seeded in a 96-well plate at a density of 10^3 cells per well in culture media. After 24 h, the culture media are replaced with differentiation media (RPMI 1640 or DMEM containing 1% FBS, 50 units/mL penicillin and 50 μg/mL of streptomycin). Test compounds are then added at a final concentration of 5-10 μM. After 96 h incubation, morphological changes of cells are observed by a light microscope (Nikon Eclipse TE2000) to detect neurite outgrowth characteristic of neuron differentiation. To ascertain neuron differentiation, the cells are washed with PBS and loaded FM1-43 (a final concentration: 2 μM, Molecular Probes) dissolved in Ringer buffer containing 100 mM KCl. […] Fluorescent intensity of the treated cells (excitation wavelength: 470 nm, emission wavelength: 540 nm) is read on a fluorescent microplate reader (SpectraMax GeminiEM, Molecular Devices).
An imidazole library of about 300 compounds is added at a final concentration of 5-10 μM. […] Fluorescent intensity (excitation wavelength: 470 nm, emission wavelength: 540 nm) is read on a fluorescent microplate reader (SpectraMax GeminiEM, Molecular Devices).

[2] = tested on: human single muscle fibers; experiment: Differentiation of isolated human muscle fibers into neuron cells; format: cell-based
Method: Single fibers of human skeletal muscle are obtained as described previously (In Vitro Cell Dev Biol Anim. 2002, 38, 66). A sample of skeletal muscle is dissected from the abductor hallucis muscle. The sample is collected and transported in single fiber culture media (Ham's F-10 medium supplemented with 10% FBS, 2% chick embryo extract and 1.5 μg/mL amphotericin B). The muscle sample is incubated in 10 mL single fiber culture media containing 0.1% collagenase in a 50 mL Falcon™ tube for 1 h at 37° C. Bundles of muscle fibers are carefully dissected using a scalpel. The bundles are laid in a Petri dish containing 10 mL single fiber culture media with 0.1% collagenase at 37° C. for 5 h. Isolation of single muscle fibers is carried out by repeatedly triturating the muscle sample with a wide-mouthed Pasteur pipette. Isolated muscle fibers that have not undergone hypercontraction (which renders them unsuitable for plating in culture dishes) are placed in matrigel-coated 6-well plates at a density of three fibers per well. Fibers are plated in one drop of single fiber culture media and allowed to attach for 6 h and then 1 mL of media is added to the culture. After 24 h, the media are changed to single fiber culture media without amphotericin B.
After 5 days, populations of satellite muscle precursor cells migrate from the fiber and begin to proliferate. […]

Compound: COc1ccc(-c2nc(-c3ccc(-c4cccc(Cl)c4)o3)[nH]c2-c2ccc(OC)cc2)cc1 [Neurodazine 1, 2-{2-[5-(3-chlorophenyl)]furanyl}-4,5-bis(4-methoxyphenyl)imidazole]
- differentiation of myoblasts into neuron cells (FIG. 2) [1]: Differentiated neuron cells from myoblasts
- differentiation of muscle fibers into neuron cells (FIG. 3) [2]: Differentiated neuron cells from muscle fibers
